Positions of bridges follow the written chain, without caps; N, C: chain ends. Residues, ends and D or L forms follow the SMILES beside them.
These compounds were tested against T1, rat α6/α3β2β3 nAChRs (Rattus norvegicus, UniProt P04757+P12390+P43143).
T1 construct: remaining part of the rat nAChR α3 subunit (Chrna3, UniProt P04757 by own knowledge), fused after the α6 extracellular portion; expressed in transfected cells; host or cells: Xenopus oocytes injected with in vitro transcribed cRNA
Format: cell-based

T1 sequence (P04757 whole entry, looked up, the tested form may be a part): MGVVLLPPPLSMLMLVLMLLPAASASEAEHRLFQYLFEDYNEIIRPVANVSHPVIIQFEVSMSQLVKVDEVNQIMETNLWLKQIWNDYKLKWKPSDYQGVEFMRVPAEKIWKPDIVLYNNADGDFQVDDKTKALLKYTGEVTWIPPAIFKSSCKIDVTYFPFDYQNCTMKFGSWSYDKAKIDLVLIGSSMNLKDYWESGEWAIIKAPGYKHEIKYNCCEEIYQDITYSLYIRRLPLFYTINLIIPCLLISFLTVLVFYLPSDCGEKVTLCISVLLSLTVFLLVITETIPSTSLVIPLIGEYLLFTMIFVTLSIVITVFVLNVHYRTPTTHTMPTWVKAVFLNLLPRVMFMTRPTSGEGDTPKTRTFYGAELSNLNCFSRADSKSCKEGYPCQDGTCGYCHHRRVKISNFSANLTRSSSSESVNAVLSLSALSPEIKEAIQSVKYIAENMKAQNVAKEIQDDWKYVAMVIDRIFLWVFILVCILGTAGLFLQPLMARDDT
T1 sequence (P12390 whole entry, looked up, the tested form may be a part): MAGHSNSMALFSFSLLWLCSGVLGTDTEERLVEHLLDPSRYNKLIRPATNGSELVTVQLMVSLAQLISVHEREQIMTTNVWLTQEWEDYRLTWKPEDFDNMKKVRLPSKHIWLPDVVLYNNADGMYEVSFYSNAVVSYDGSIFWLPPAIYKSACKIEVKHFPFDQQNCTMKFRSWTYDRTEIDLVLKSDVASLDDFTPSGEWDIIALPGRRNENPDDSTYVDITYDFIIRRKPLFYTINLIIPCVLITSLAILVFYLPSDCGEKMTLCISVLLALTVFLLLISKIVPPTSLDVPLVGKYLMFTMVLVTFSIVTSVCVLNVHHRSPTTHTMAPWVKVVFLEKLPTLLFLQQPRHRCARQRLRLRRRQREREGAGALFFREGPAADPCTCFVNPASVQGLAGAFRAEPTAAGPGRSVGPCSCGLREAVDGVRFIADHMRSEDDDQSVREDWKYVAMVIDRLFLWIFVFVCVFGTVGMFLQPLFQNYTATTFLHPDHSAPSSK
T1 sequence (P43143 whole entry, looked up, the tested form may be a part): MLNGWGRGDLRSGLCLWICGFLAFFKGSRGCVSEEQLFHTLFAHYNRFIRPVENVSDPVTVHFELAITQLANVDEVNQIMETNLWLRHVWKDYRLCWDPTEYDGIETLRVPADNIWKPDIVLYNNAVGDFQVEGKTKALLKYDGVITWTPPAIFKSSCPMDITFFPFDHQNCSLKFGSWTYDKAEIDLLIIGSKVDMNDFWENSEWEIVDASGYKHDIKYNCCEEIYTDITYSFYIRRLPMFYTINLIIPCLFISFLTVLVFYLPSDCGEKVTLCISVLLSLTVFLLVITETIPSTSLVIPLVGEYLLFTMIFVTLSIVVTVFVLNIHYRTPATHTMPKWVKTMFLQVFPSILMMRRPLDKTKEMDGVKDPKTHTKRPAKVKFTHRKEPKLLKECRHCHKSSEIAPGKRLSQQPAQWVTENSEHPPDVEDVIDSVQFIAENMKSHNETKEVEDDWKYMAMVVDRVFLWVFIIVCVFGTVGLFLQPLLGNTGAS

For CC(C)C[C@@H]1NC(=O)[C@H](CC(=O)O)NC(=O)[C@@H]2CCCN2C(=O)[C@H](Cc2c[nH]cn2)NC(=O)[C@H](CCCCN)NC(=O)[C@H](CC(N)=O)NC(=O)[C@H](CCCNC(=N)N)NC(=O)[C@@H]2CSSC[C@H](NC(=O)CN)C(=O)N[C@@H](CSSC[C@@H](C(N)=O)NC1=O)C(=O)N[C@@H](CO)C(=O)N[C@@H](CC(=O)O)C(=O)N1CCC[C@H]1C(=O)N1CCC[C@H]1C(=O)N2 [TxIB, α-Conotoxin TxIB, reference compound] (H-GCCSDPPCRNKHPDLC-NH2; disulfide 2-8, 3-16), which “inhibition of α6β2* nAChRs” value is on record?
The value was 42%.

For CC(C)C[C@@H]1NC(=O)[C@H](CC(=O)O)NC(=O)[C@@H]2CCCN2C(=O)[C@H](Cc2c[nH]cn2)NC(=O)[C@H](CCCCN)NC(=O)[C@H](CC(N)=O)NC(=O)[C@H](CCCNC(=N)N)NC(=O)[C@@H]2CSSC[C@@H]3NC(=O)CNC(=O)CNC(=O)[C@H](C)NC(=O)[C@H](C)NC(=O)CNC(=O)[C@H](CSSC[C@H](NC3=O)C(=O)N[C@@H](CO)C(=O)N[C@@H](CC(=O)O)C(=O)N3CCC[C@H]3C(=O)N3CCC[C@H]3C(=O)N2)NC1=O [cTxIB-4] (cyclo(AAGGCCSDPPCRNKHPDLCG); disulfide 5-11, 6-19), which “inhibition of α6β2* nAChRs” value is on record?
The value was “about 35%”.

For CC(C)C[C@@H]1NC(=O)[C@H](CC(=O)O)NC(=O)[C@@H]2CCCN2C(=O)[C@H](Cc2c[nH]cn2)NC(=O)[C@H](CCCCN)NC(=O)[C@H](CC(N)=O)NC(=O)[C@H](CCCNC(=N)N)NC(=O)[C@@H]2CSSC[C@@H]3NC(=O)CNC(=O)CNC(=O)[C@H](C)NC(=O)[C@H](C)NC(=O)CNC(=O)CNC(=O)[C@H](CSSC[C@H](NC3=O)C(=O)N[C@@H](CO)C(=O)N[C@@H](CC(=O)O)C(=O)N3CCC[C@H]3C(=O)N3CCC[C@H]3C(=O)N2)NC1=O [cTxIB-5] (cyclo(AAGGCCSDPPCRNKHPDLCGG); disulfide 5-11, 6-19), which “inhibition of α6β2* nAChRs” value is on record?
The value was about 42%.

CC(C)C[C@@H]1NC(=O)[C@H](CC(=O)O)NC(=O)[C@@H]2CCCN2C(=O)[C@H](Cc2c[nH]cn2)NC(=O)[C@H](CCCCN)NC(=O)[C@H](CC(N)=O)NC(=O)[C@H](CCCNC(=N)N)NC(=O)[C@@H]2CSSC[C@@H]3NC(=O)CNC(=O)CNC(=O)[C@H](C)NC(=O)[C@H](C)NC(=O)CNC(=O)[C@H](C)NC(=O)CNC(=O)[C@H](CSSC[C@H](NC3=O)C(=O)N[C@@H](CO)C(=O)N[C@@H](CC(=O)O)C(=O)N3CCC[C@H]3C(=O)N3CCC[C@H]3C(=O)N2)NC1=O [cTxIB-6] (cyclo(AAGGCCSDPPCRNKHPDLCGAG); disulfide 5-11, 6-19) was tested. Which “inhibition of α6β2* nAChRs” value did it give?
The value was about 48%.

With CC(C)C[C@@H]1NC(=O)[C@H](CC(=O)O)NC(=O)[C@@H]2CCCN2C(=O)[C@H](Cc2c[nH]cn2)NC(=O)[C@H](CCCCN)NC(=O)[C@H](CC(N)=O)NC(=O)[C@H](CCCNC(=N)N)NC(=O)[C@@H]2CSSC[C@@H]3NC(=O)CNC(=O)CNC(=O)[C@H](C)NC(=O)CNC(=O)[C@H](C)NC(=O)[C@H](C)NC(=O)CNC(=O)CNC(=O)[C@H](CSSC[C@H](NC3=O)C(=O)N[C@@H](CO)C(=O)N[C@@H](CC(=O)O)C(=O)N3CCC[C@H]3C(=O)N3CCC[C@H]3C(=O)N2)NC1=O [cTxIB-7] (cyclo(AAGAGGCCSDPPCRNKHPDLCGG); disulfide 7-13, 8-21) as the compound, how does the “inhibition of α6β2* nAChRs” value read?
The value was about 41%.

Source: paper PMC7230940 (Marine Drugs, 2020)
